The results in this text go back to ChEMBL document CHEMBL5223182, “Inhibition of HIV-1 Protease by a Boronic Acid with High Oxidative Stability” (ACS Med Chem Lett, 2023).

Data set [1] deals with T1, Human immunodeficiency virus type 1 protease (Human immunodeficiency virus 1, UniProt Q72874). As to the kind of experiment: Inhibition of HIV-1 protease by fluorescence assay.
The nature of data set [2]: Oxidative stability of compound in PBS by UV visible spectrophotometer analysis. The data set is classed as physicochemical. The settings on record: buffer.
Data set [3] in a line: Oxidative stability in sodium phosphate buffer assessed as relative rate constant. The data set is classed as physicochemical.
Data set [4] is described as follows: Oxidative stability in sodium phosphate buffer assessed as observed rate constant. Type of data set: physicochemical.
Another data set addresses Protease (Human immunodeficiency virus 1, UniProt Q9YQ12, D30N). As to the kind of experiment: Inhibition of HIV-1 protease D30N mutant.
The target in data set [5] is T1, Human immunodeficiency virus type 1 protease. As to the kind of experiment: Inhibition of HIV-1 protease.

By Ki is commonly meant a measure of affinity in units of concentration, obtained from inhibition or displacement. A higher Ki goes with a looser hold on the target.

Sequence of Protease (Q9YQ12 entry or part of it D30N): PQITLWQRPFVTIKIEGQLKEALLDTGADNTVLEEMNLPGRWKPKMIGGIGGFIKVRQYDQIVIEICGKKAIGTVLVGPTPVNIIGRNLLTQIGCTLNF

The molecule `CC(C)CN(C[C@@H](O)[C@H](Cc1ccccc1)NC(=O)O[C@H]1CO[C@H]2OCC[C@H]21)S(=O)(=O)c1ccc(B(O)O)cc1` returned a Ki in data set [1] of 0.5 pM. In addition, the K in data set [2] stood at 2.4 M⁻¹ s⁻¹; in data set [3], 1; in data set [4], 0.12 M⁻¹ s⁻¹.

In the case of `CC(C)CN(C[C@@H](O)[C@H](Cc1ccccc1)NC(=O)O[C@H]1CO[C@H]2OCC[C@H]21)S(=O)(=O)c1ccc2c(c1)C(=O)O[B-]2(O)O`, the figures for the K in data set [2], in data set [3] and in data set [4] were 0.00015 M⁻¹ s⁻¹, 0.021 and 0.0026 M⁻¹ s⁻¹, respectively. Further, the Ki at Protease amounted to 7 pM; in data set [5], 10 pM.
